Assay [1] concerns the target T1, PE-labeled human PD-L1-Ig binding to Jurkat cell line over-expressing human PD-1 (Jurkat-PD-1) (Homo sapiens, UniProt Q15116).
T1 construct: expressed in transfected cells; host or cells: Jurkat
Briefly: Jurkat-PD-1 Cell Binding High-Content Screening Assay (CBA): Method 2 (presence and absence of tween-20). Particulars: Jurkat-PD-1 cells, PE-labeled PD-L1-Ig 20 nM, presence or absence of tween-20 not given. The protocol:
Jurkat-PD-1 Cell Binding High-Content Screening Assay (CBA): Method 2
Phycoerythrin (PE) was covalently linked to the Ig epitope tag of human PD-L1-Ig and fluorescently labeled PD-L1-Ig was used for binding studies with a Jurkat cell line over-expressing human PD-1 (Jurkat-PD-1). […] 100 nl of compound was added to cells followed by incubation at 37° C. for 2 hours. To interrogate potential issues with compound aggregation, compounds were tested in the presence and absence of tween-20 detergent. […] Then, 5 μl of PE-labeled PD-L1-Ig (20 nM final), diluted in DMEM supplemented with 10% fetal calf serum. […] Data was collected and processed using a Cell Insight NXT High Content Imager and associated software.

Assay [2] deals with T1, PE-labeled human PD-L1-Ig binding to Jurkat cell line over-expressing human PD-1 (Jurkat-PD-1). As to the kind of experiment: Jurkat-PD-1 Cell Binding High-Content Screening Assay (CBA): Method 1. Particulars: Jurkat-PD-1 cells, PE-labeled PD-L1-Ig.
The mark [3] stands for this setting: head μM, read-out: CBA Method 2 μM.

Numbered stars: 1 amine (or outer) side, 2 acyl side, 3 side chain; on linkers, the order of the positions; unused ones are H or OH. Bridge positions count the residues as written; N and C are the ends. Square brackets hold non-standard residues; d marks the D form. Peptide text beside a SMILES is read from it. * marks the point of attachment. Bip(4'-COOH) = N[C@@H](Cc1ccc(-c2ccc(C(=O)O)cc2)cc1)C(=O)O; Bip(4'-NHAc) = CC(=O)Nc1ccc(-c2ccc(C[C@H](N)C(=O)O)cc2)cc1; X1 = O=C(C[C@H](N[*:1])C(=O)[*:2])NS(=O)(=O)c1ccc(Cl)cc1F; X12 = O=C(NCc1cccc(C[C@H](N[*:1])C(=O)[*:2])c1)c1ccncc1; X6 = O=C(C[C@H](N[*:1])C(=O)[*:2])NS(=O)(=O)c1ccccc1Cl; Phe(3-CF3) = N[C@@H](Cc1cccc(C(F)(F)F)c1)C(=O)O; Ala(morpholin-4-yl) = N[C@@H](CN1CCOCC1)C(=O)O; Phe(4-CONH2) = NC(=O)c1ccc(C[C@H](N)C(=O)O)cc1; Phe(4-COOH) = N[C@@H](Cc1ccc(C(=O)O)cc1)C(=O)O; Bip = N[C@@H](Cc1ccc(-c2ccccc2)cc1)C(=O)O; Phe(3-F) = N[C@@H](Cc1cccc(F)c1)C(=O)O; Phe(3-I) = N[C@@H](Cc1cccc(I)c1)C(=O)O; Phe(3-Me) = Cc1cccc(C[C@H](N)C(=O)O)c1; Abu(3S-NH2) = C[C@H](N)[C@H](N)C(=O)O; Val(3-OH) = CC(C)(O)[C@H](N)C(=O)O; 3Pal = N[C@@H](Cc1cccnc1)C(=O)O; Cha = N[C@@H](CC1CCCCC1)C(=O)O; Carboxymethyl = O=C(O)C*; NMeA = CN[C@@H](C)C(=O)O; Nle = CCCC[C@H](N)C(=O)O; Orn = NCCC[C@H](N)C(=O)O; Dab = NCC[C@H](N)C(=O)O

T1 sequence (Q15116 25-288): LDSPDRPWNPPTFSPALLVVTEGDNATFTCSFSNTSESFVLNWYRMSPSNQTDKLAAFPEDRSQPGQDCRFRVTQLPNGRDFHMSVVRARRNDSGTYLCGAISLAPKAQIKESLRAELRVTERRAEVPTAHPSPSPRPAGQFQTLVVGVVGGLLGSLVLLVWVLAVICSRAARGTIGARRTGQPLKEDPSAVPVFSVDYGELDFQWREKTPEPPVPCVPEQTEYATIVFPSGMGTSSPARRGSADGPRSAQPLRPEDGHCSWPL

`CC(C)C[C@H]1NC(=O)[C@H](C)N(C)C(=O)[C@H](CCC(N)=O)NC(=O)[C@H](Cc2ccc(-c3ccccc3)cc2)NC(=O)[C@H](Cc2ccc(C(=O)O)cc2)NC(=O)[C@H](Cc2cccc(C(F)(F)F)c2)NC(=O)[C@H](CC(=O)O)NC(=O)[C@H](Cc2ccc(OCC(=O)O)cc2)NC(=O)[C@H](CN2CCOCC2)NC(=O)CSC[C@@H](C(=O)N[C@@H](CCN)C(N)=O)NC(=O)[C@H](CCCN)NC(=O)[C@H](C(C)C)NC(=O)[C@H](CC2CCCCC2)NC(=O)[C@H](CCN)NC1=O` [Example 5013] ({CH2CO}-[Ala(morpholin-4-yl)]Y(Carboxymethyl)D[Phe(3-CF3)][Phe(4-COOH)][Bip]Q[NMeA][dL][Dab][Cha]V[Orn]C[Dab]-NH2; thioether N-14): the IC50 in assay [1] (nM, read-out: CBA Method 2) was found to be 4 nM; in assay [2] (nM, read-out: CBA Method 1), 11 nM.
Turning to `CC(C)C[C@H]1NC(=O)[C@H](C)N(C)C(=O)[C@H](CCC(N)=O)NC(=O)[C@H](Cc2ccc(-c3ccccc3)cc2)NC(=O)[C@H](Cc2ccc(C(=O)O)cc2)NC(=O)[C@H](Cc2cccc(C(F)(F)F)c2)NC(=O)[C@H](CC(=O)NS(=O)(=O)c2ccc(Cl)cc2F)NC(=O)[C@H](Cc2ccc(C(=O)O)cc2)NC(=O)[C@H](CN2CCOCC2)NC(=O)CSC[C@@H](C(=O)N[C@@H](CCN)C(N)=O)NC(=O)[C@H](CCCN)NC(=O)[C@H](C(C)C)NC(=O)[C@H](CC2CCCCC2)NC(=O)[C@H](CCN)NC1=O` [Example 5081] ({CH2CO}-[Ala(morpholin-4-yl)][Phe(4-COOH)][X1][Phe(3-CF3)][Phe(4-COOH)][Bip]Q[NMeA][dL][Dab][Cha]V[Orn]C[Dab]-NH2; thioether N-14), the IC50 in assay [1] (setting [3]) was determined as 113 nM; in assay [2] (μM, read-out: CBA Method 1 μM), 173 nM.
In the case of `CC(C)C[C@H]1NC(=O)[C@H](C)N(C)C(=O)[C@H](CCC(N)=O)NC(=O)[C@H](Cc2ccc(-c3ccccc3)cc2)NC(=O)[C@H](Cc2ccc(C(=O)O)cc2)NC(=O)[C@H](Cc2cccc(C(F)(F)F)c2)NC(=O)[C@H](CC(=O)NS(=O)(=O)c2ccccc2Cl)NC(=O)[C@H](Cc2ccc(C(=O)O)cc2)NC(=O)[C@H](CN2CCOCC2)NC(=O)CSC[C@@H](C(=O)N[C@@H](CCN)C(N)=O)NC(=O)[C@H](CCCN)NC(=O)[C@H](C(C)C)NC(=O)[C@H](CC2CCCCC2)NC(=O)[C@H](CCN)NC1=O` [Example 5080] ({CH2CO}-[Ala(morpholin-4-yl)][Phe(4-COOH)][X6][Phe(3-CF3)][Phe(4-COOH)][Bip]Q[NMeA][dL][Dab][Cha]V[Orn]C[Dab]-NH2; thioether N-14), the IC50 in assay [1] (setting [3]) amounted to 332 nM; in assay [2] (μM, read-out: CBA Method 1 μM), 224 nM.
The like results for `Cc1cccc(C[C@@H]2NC(=O)[C@H](CC(=O)O)NC(=O)[C@H](Cc3ccc(OCC(=O)O)cc3)NC(=O)[C@H](CN3CCOCC3)NC(=O)CSC[C@@H](C(=O)N[C@@H](CCN)C(N)=O)NC(=O)[C@H](CCCN)NC(=O)[C@H](C(C)C)NC(=O)[C@H](Cc3cccnc3)NC(=O)[C@H](CCN)NC(=O)[C@@H](CC(C)C)NC(=O)[C@H](C)N(C)C(=O)[C@H](CCC(N)=O)NC(=O)[C@H](Cc3ccc(-c4ccccc4)cc3)NC(=O)[C@H](Cc3ccc(C(=O)O)cc3)NC2=O)c1` [Example 5039] ({CH2CO}-[Ala(morpholin-4-yl)]Y(Carboxymethyl)D[Phe(3-Me)][Phe(4-COOH)][Bip]Q[NMeA][dL][Dab][3Pal]V[Orn]C[Dab]-NH2; thioether N-14) were, in that order, 60.7 nM and 72.9 nM.
The like results for `CC(=O)Nc1ccc(-c2ccc(C[C@@H]3NC(=O)[C@H](Cc4cccc(C)c4)NC(=O)[C@H](CC(=O)O)NC(=O)[C@H](Cc4ccc(C(=O)O)cc4)NC(=O)[C@H](CC(C)C)NC(=O)CSC[C@@H](C(=O)N[C@@H](CCN)C(N)=O)NC(=O)[C@H](CCCN)NC(=O)[C@H](C(C)C)NC(=O)[C@H](Cc4cccc(F)c4)NC(=O)[C@H](CCN)NC(=O)[C@@H](CC(C)C)NC(=O)[C@H](C)N(C)C(=O)[C@H](CCC(N)=O)NC(=O)[C@H](Cc4ccc(-c5ccccc5)cc4)NC3=O)cc2)cc1` [Example 5055] ({CH2CO}-L[Phe(4-COOH)]D[Phe(3-Me)][Bip(4'-NHAc)][Bip]Q[NMeA][dL][Dab][Phe(3-F)]V[Orn]C[Dab]-NH2; thioether N-14) were, in that order, 32.1 nM and 38.5 nM.
In the case of `CC(C)C[C@H]1NC(=O)[C@H](C)N(C)C(=O)[C@H](CCCN)NC(=O)[C@H](Cc2ccc(-c3ccccc3)cc2)NC(=O)[C@H](Cc2ccc(-c3ccc(C(=O)O)cc3)cc2)NC(=O)[C@H](Cc2cccc(C(F)(F)F)c2)NC(=O)[C@H](CC(=O)O)NC(=O)[C@H](Cc2ccc(-c3ccc(C(=O)O)cc3)cc2)NC(=O)[C@H](Cc2ccc(OCC(=O)O)cc2)NC(=O)CSC[C@@H](C(=O)N[C@@H](CCN)C(N)=O)NC(=O)[C@H](CCCN)NC(=O)[C@H](C(C)C)NC(=O)[C@H](CC2CCCCC2)NC(=O)[C@H](CCN)NC1=O` [Example 5087] ({CH2CO}-Y(Carboxymethyl)[Bip(4'-COOH)]D[Phe(3-CF3)][Bip(4'-COOH)][Bip][Orn][NMeA][dL][Dab][Cha]V[Orn]C[Dab]-NH2; thioether N-14), the IC50 in assay [1] (setting [3]) was 110 nM; in assay [2] (μM, read-out: CBA Method 1 μM), 30 nM.
Regarding `CC(=O)Nc1ccc(-c2ccc(C[C@@H]3NC(=O)[C@H](Cc4cccc(C)c4)NC(=O)[C@H](CC(=O)O)NC(=O)[C@H](Cc4ccc(C(=O)O)cc4)NC(=O)[C@H]([C@H](C)N)NC(=O)CSC[C@@H](C(=O)N[C@@H](CCN)C(N)=O)NC(=O)[C@H](CCCN)NC(=O)[C@H](C(C)C)NC(=O)[C@H](Cc4cccc(F)c4)NC(=O)[C@H](CCN)NC(=O)[C@@H](CC(C)C)NC(=O)[C@H](C)N(C)C(=O)[C@H](CCC(N)=O)NC(=O)[C@H](Cc4ccc(-c5ccccc5)cc4)NC3=O)cc2)cc1` [Example 5052] ({CH2CO}-[Abu(3S-NH2)][Phe(4-COOH)]D[Phe(3-Me)][Bip(4'-NHAc)][Bip]Q[NMeA][dL][Dab][Phe(3-F)]V[Orn]C[Dab]-NH2; thioether N-14), the IC50 was 8.4 nM in assay [1] (setting [3]) and 8.1 nM in assay [2] (μM, read-out: CBA Method 1 μM).
As for `CC(C)C[C@H]1NC(=O)[C@H](C)N(C)C(=O)[C@H](CCC(N)=O)NC(=O)[C@H](Cc2ccc(-c3ccccc3)cc2)NC(=O)[C@H](Cc2cccc(CNC(=O)c3ccncc3)c2)NC(=O)[C@H](Cc2cccc(I)c2)NC(=O)[C@H](CC(=O)O)NC(=O)[C@H](Cc2ccc(OCC(=O)O)cc2)NC(=O)[C@H](CN2CCOCC2)NC(=O)CSC[C@@H](C(=O)N[C@@H](CCN)C(N)=O)NC(=O)[C@H](CCCN)NC(=O)[C@H](C(C)C)NC(=O)[C@H](CC2CCCCC2)NC(=O)[C@H](CCN)NC1=O` [Example 5020] ({CH2CO}-[Ala(morpholin-4-yl)]Y(Carboxymethyl)D[Phe(3-I)][X12][Bip]Q[NMeA][dL][Dab][Cha]V[Orn]C[Dab]-NH2; thioether N-14), the IC50 came out at 5 nM in assay [1] (nM, read-out: CBA Method 2) and 5.8 nM in assay [2] (nM, read-out: CBA Method 1).
In the case of `CCCC[C@@H]1NC(=O)CSC[C@@H](C(=O)N[C@@H](CCN)C(N)=O)NC(=O)[C@H](CO)NC(=O)[C@H](C(C)(C)O)NC(=O)[C@H](CC2CCCCC2)NC(=O)[C@H](CCN)NC(=O)[C@@H](CC(C)C)NC(=O)[C@H](C)N(C)C(=O)[C@H](Cc2ccc(C(N)=O)cc2)NC(=O)[C@H](Cc2ccc(-c3ccccc3)cc2)NC(=O)[C@H](Cc2ccc(-c3ccc(NC(C)=O)cc3)cc2)NC(=O)[C@H](Cc2cccc(C)c2)NC(=O)[C@H](CC(=O)O)NC(=O)[C@H](Cc2ccc(OCC(=O)O)cc2)NC1=O` [Example 5069] ({CH2CO}-[Nle]Y(Carboxymethyl)D[Phe(3-Me)][Bip(4'-NHAc)][Bip][Phe(4-CONH2)][NMeA][dL][Dab][Cha][Val(3-OH)]SC[Dab]-NH2; thioether N-14), the IC50 was 13.1 nM in assay [1] (setting [3]) and 13.6 nM in assay [2] (μM, read-out: CBA Method 1 μM).
The matching figures for `CC(=O)Nc1ccc(-c2ccc(C[C@@H]3NC(=O)[C@H](Cc4cccc(C(F)(F)F)c4)NC(=O)[C@H](CC(=O)O)NC(=O)[C@H](Cc4ccc(C(=O)O)cc4)NC(=O)[C@H]([C@H](C)N)NC(=O)CSC[C@@H](C(=O)N[C@@H](CCN)C(N)=O)NC(=O)[C@H](CCCN)NC(=O)[C@H](C(C)C)NC(=O)[C@H](CC4CCCCC4)NC(=O)[C@H](CCN)NC(=O)[C@@H](CC(C)C)NC(=O)[C@H](C)N(C)C(=O)[C@H](CCC(N)=O)NC(=O)[C@H](Cc4ccc(-c5ccccc5)cc4)NC3=O)cc2)cc1` [Example 5050] ({CH2CO}-[Abu(3S-NH2)][Phe(4-COOH)]D[Phe(3-CF3)][Bip(4'-NHAc)][Bip]Q[NMeA][dL][Dab][Cha]V[Orn]C[Dab]-NH2; thioether N-14): 5.9 nM and 6.5 nM.
In the case of `CC(C)C[C@H]1NC(=O)[C@H](C)N(C)C(=O)[C@H](CCCN)NC(=O)[C@H](Cc2ccc(-c3ccccc3)cc2)NC(=O)[C@H](Cc2ccc(-c3ccc(C(=O)O)cc3)cc2)NC(=O)[C@H](Cc2cccc(C(F)(F)F)c2)NC(=O)[C@H](CC(=O)O)NC(=O)[C@H](Cc2ccc(-c3ccc(C(=O)O)cc3)cc2)NC(=O)[C@H](Cc2ccc(OCC(=O)O)cc2)NC(=O)CSC[C@@H](C(=O)N[C@@H](CCN)C(N)=O)NC(=O)[C@H](CCC(=O)O)NC(=O)[C@H](C(C)C)NC(=O)[C@H](CC2CCCCC2)NC(=O)[C@H](CCN)NC1=O` [Example 5085] ({CH2CO}-Y(Carboxymethyl)[Bip(4'-COOH)]D[Phe(3-CF3)][Bip(4'-COOH)][Bip][Orn][NMeA][dL][Dab][Cha]VEC[Dab]-NH2; thioether N-14), the IC50 in assay [1] (setting [3]) came to 10 nM; in assay [2] (μM, read-out: CBA Method 1 μM) it was 31.5 nM.

For the origin of these results see patent US20240409585A1, “MACROCYCLIC IMMUNOMODULATORS” (priority 2021, published 2024).
